US12612412B2, “Antiviral heterocyclic compounds” (Enanta Pharmaceuticals, Inc., priority 2021, dated 2026)

What follows are molecules tested on genotype A, "Long" strain RSV (assay: RSV-A assay (CPE protection in Hep-2 cells, ATPlite readout)). Conditions: human respiratory syncytial virus, RSV-A Long strain, MOI 0.1, CPE protection, read-out: Human RSV-A (“Long”) EC50.
Format: cell-based, Human respiratory syncytial virus (HRSV)
Outline: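 Compound effect on RSV-induced CPE: Hep-2 monolayers, MOI 0.1, duplicate 2-fold titrations, 5-day culture in 10% FBS DMEM. Readout is ATP-based luminescence, normalised to virus-only and no-virus controls, giving EC50.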

EC50 | Structure (SMILES)
< 200 nM | Cc1cnc2c(OC(F)F)cc(C(=O)NC[C@](O)(c3cc4c(c(-c5ccc(F)cc5Cl)n3)OC[C@]4(C)C(N)=O)C3CC3)cc2c1 [Example 1215]
< 200 nM | COc1cc(C(=O)NC[C@](O)(c2cc3c(c(-c4cccc(Cl)c4F)n2)OC[C@]3(C)C(N)=O)C2CC2)cc2cn(C3CC3)nc12 [Example 1283]
< 200 nM | COc1cc(C(=O)NC[C@](O)(c2cc3c(c(-c4cc(F)c(F)c(F)c4)n2)OC[C@]3(C)C(N)=O)C2CC2)cc2cn(C3CC3)nc12 [Example 1273]
< 200 nM | COc1cc(C(=O)NC[C@@](O)(c2cc3c(c(-c4cccc(Br)c4F)n2)OC[C@]3(C)C(N)=O)C(F)(F)F)cc2cn(C3CC3)nc12 [Example 1224]
> 200 nM | COc1ccc(-c2nc([C@](O)(CNC(=O)c3cc(OC)c4nn(C5CC5)cc4c3)C(F)(F)F)cc3c2OC[C@]3(C)C(N)=O)cc1OC [Example 905]
< 200 nM | COc1cc(C(=O)NC[C@](O)(c2cc3c(c(-c4cc(F)c(F)c(F)c4F)n2)OC[C@]3(C)C(N)=O)C2CC2)cc2cn(C3CC3)nc12 [Example 1278]

Same assay, conditions: human respiratory syncytial virus, genotype A “Long” strain RSV, MOI 0.1, CPE protection, read-out: Human RSV-A (“Long”)

Structure (SMILES) | EC50
CC[C@@]1(C(N)=O)COc2c1cc([C@@](O)(CNC(=O)c1cc(OC)c3nc(C)c(Cl)cc3c1)C(F)(F)F)nc2-c1ccc(F)cc1 [Example 247] | > 200 nM
Cn1ccc2cc(C(=O)NC[C@](O)(c3cc4c(c(-c5ccc(F)cc5)n3)OC[C@]4(C)C(N)=O)C(F)(F)F)ccc21 [Example 176] | > 200 nM
C[C@]1(C(N)=O)COc2c1cc([C@@](O)(CNC(=O)c1cn(-c3ccccc3)nc1-c1ccccc1)C(F)(F)F)nc2-c1ccc(F)cc1 [Example 443] | > 200 nM
Cc1cncnc1C(=O)NC[C@](O)(c1cc2c(c(-c3ccc(F)cc3)n1)OC[C@]2(C)C(N)=O)C(F)(F)F [Example 410] | > 200 nM
C[C@]1(C(N)=O)COc2c1cc([C@@](O)(CNC(=O)c1n[nH]c3ccc(F)cc13)C(F)(F)F)nc2-c1ccc(F)cc1 [Example 397] | > 200 nM
C[C@]1(C(N)=O)COc2c1cc([C@@](O)(CNC(=O)c1cnc3[nH]cnc3c1)C(F)(F)F)nc2-c1ccc(F)cc1 [Example 365] | > 200 nM
COc1cc(C(=O)NC[C@](O)(c2cc3c(c(-c4ccc(F)cc4)n2)OC[C@]3(C)C(N)=O)C(F)(F)F)ccc1OC[C@@H](C)N [Example 150] | > 200 nM
C[C@]1(C(N)=O)COc2c1cc([C@@](O)(CNC(=O)c1sc3ccccc3c1Cl)C(F)(F)F)nc2-c1ccc(F)cc1 [Example 419] | > 200 nM

More lines, now with the values ahead:

EC50 | Structure (SMILES)
> 200 nM | COc1ccc2cc(C(=O)NC[C@](O)(c3cc4c(c(-c5ccc(F)cc5)n3)OC[C@]4(C)C(N)=O)C(F)(F)F)n(C)c2c1 [Example 336]
> 200 nM | CC[C@@]1(C(N)=O)COc2c1cc([C@@](O)(CNC(=O)c1ccc(OC3CC3)c(OC)c1)C(F)(F)F)nc2-c1ccc(F)cc1 [Example 250]
> 200 nM | Cc1cc(C(=O)NC[C@](O)(c2cc3c(c(-c4ccc(F)cc4)n2)OC[C@]3(C)C(N)=O)C(F)(F)F)n[nH]1 [Example 355]
< 200 nM | COc1cc(C(=O)NC[C@](O)(c2cc3c(c(-c4ccc(F)cc4)n2)OC[C@]3(CF)C(N)=O)C(F)(F)F)cc2cc(Cl)c(C)nc12 [Example 285]
> 200 nM | C[C@]1(C(N)=O)COc2c1cc([C@@](O)(CNC(=O)c1cnn3cccc3c1)C(F)(F)F)nc2-c1ccc(F)cc1 [Example 201]
< 200 nM | C[C@]1(C(N)=O)COc2c1cc([C@@](O)(CNC(=O)c1ccc3nc(NC(=O)[C@@H](N)CO)sc3c1)C(F)(F)F)nc2-c1ccc(F)cc1 [Example 187]
< 200 nM | COc1cc(C(=O)NC[C@](O)(c2cc3c(c(-c4ccc(F)cc4)n2)OCC3(C(N)=O)C(F)F)C(F)(F)F)cc2cc(Cl)c(C)nc12 (some centres unmarked) [Example 256]
< 200 nM | CC[C@]1(C(N)=O)COc2c1cc([C@@](O)(CNC(=O)c1cc(OC)c3nc(C4CC4)cn3c1)C(F)(F)F)nc2-c1ccc(F)cc1 [Example 236]
< 200 nM | COc1cc(C(=O)NC[C@](O)(c2cc3c(c(-c4ccc(F)cc4)n2)OC[C@]3(CF)C(N)=O)C(F)(F)F)cn2cc(C3CC3)nc12 [Example 292]
